Several values for one entry are separate records, joined by “and”; a condition that tells them apart may be missing. Equal values may be shown once.
What was measured:
[1] = system: Maackia amurensis lectins (MAA); experiment: CUPRA library screening and affinity, MAA; type: binding; conditions: 50uM MAA; mean of 4 DIi values, FigS3c
Description: (§1) Unless otherwise noted, the measurements were performed at 25 °C. […] We identified specific ligands from the depletion index (DIi, Eq. 1) – the change in the fractional abundance (Fi, Eq. 2) ratio of ligand i-bound and free ^UniPproxy ions upon addition of GBP. Prior to calculating Fi, we treated each mass spectrum with the Sliding Window Adducts Removal Method (SWARM)[18] to remove contributions to the abundance of ^UniPproxy -OS^mod complex ions from adducts, formed by the ESI process, of neighbouring complex ions (Supplementary Fig. 2). Shown in Fig. 2a is a summary of the DIi measured by CUPRA screening of the 66-component library against S4 (50 μM). As expected, the average DIi for this negative control is close to 1.0 (0.99 ± 0.03). In contrast, CUPRA screening against the positive controls produced decreases in DIi for one or more of the library components. […] Application of CUPRA to human CD22, part of an important class of Neu5Ac-binding GBPs implicated in both innate and adaptive immunity, correctly identified HMO08 as a ligand (Supplementary Fig. 4a). CUPRA screening of MAA at high concentration (50 μM) identified HMO03 and GA06 as ligands. […]
(§2) Using SWARM-treated mass spectra, DIi was calculated for each ligand from the ratio of the fractional abundances (Fi) of ligand (i)-bound and free ^UniPproxy ions in the presence (+GBP) and absence (-GBP) of GBP, Eqs. […]

[2] = system: family 51 carbohydrate binding module (CBM51); experiment: CUPRA library screening and affinity, CBM51; conditions: 25uM CBM51; mean of 4 DIi values, FigS3a
Description: as §1, §2

human siglec-2 (CD22) = biological target: T1, human siglec-2 (CD22) (Homo sapiens, UniProt P20273); experiment: CUPRA library screening and affinity, siglec-2; type: binding; conditions: for average DI: mean of 4 DIi values
T1 construct: Residues 1–332 of human Siglec-2 (MW 140 kDa, purity > 95%) were cloned in frame with human IgG1 Fc and a C-terminal His6; made in house
T1 sequence (P20273 20-332): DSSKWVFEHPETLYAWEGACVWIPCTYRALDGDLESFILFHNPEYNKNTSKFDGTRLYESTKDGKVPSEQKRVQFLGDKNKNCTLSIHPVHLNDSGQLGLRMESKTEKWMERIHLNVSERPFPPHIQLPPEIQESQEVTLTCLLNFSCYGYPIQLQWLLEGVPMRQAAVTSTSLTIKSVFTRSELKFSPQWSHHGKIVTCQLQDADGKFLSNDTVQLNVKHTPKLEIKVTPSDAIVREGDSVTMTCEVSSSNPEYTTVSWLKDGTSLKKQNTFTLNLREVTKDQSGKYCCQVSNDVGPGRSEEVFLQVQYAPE

[3] = biological target: Cholera toxin B subunit homopentamer (CTB5) (Vibrio cholerae serotype O1, UniProt P01556); type: binding
[4] = biological target: streptavidin homotetramer (S4) (Streptomyces avidinii, UniProt P22629); experiment: CUPRA library screening against negative control streptavidin; type: binding; parameters: key: ratio change on GBP addition; ~1.0 = no binding (negative control); conditions: depletion index, 50 μM streptavidin
[5] = biological target: human carbonic anhydrase type 1 (Homo sapiens, UniProt P00915); experiment: Direct ESI-MS affinity of OSmod for the universal proxy protein (UniPproxy); conditions: read-out: Kd of OSmod for UniPproxy; direct ESI-MS, 200 mM aqueous ammonium acetate, pH 7, 25 °C
human carbonic anhydrase type 1, sequence (P00915 whole entry): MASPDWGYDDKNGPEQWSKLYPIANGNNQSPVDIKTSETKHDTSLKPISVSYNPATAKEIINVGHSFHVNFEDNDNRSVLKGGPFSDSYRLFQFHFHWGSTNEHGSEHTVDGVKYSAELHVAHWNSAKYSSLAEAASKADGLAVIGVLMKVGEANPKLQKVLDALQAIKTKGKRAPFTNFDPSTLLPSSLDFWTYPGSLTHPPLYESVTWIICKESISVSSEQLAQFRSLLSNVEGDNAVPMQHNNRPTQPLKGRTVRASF

Cholera toxin B subunit homopentamer (CTB5), sequence (P01556 22-124 limits assumed): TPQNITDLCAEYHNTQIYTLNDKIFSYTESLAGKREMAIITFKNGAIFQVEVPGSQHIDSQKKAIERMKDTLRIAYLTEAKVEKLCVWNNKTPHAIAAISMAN
streptavidin homotetramer (S4), sequence (P22629 25-183): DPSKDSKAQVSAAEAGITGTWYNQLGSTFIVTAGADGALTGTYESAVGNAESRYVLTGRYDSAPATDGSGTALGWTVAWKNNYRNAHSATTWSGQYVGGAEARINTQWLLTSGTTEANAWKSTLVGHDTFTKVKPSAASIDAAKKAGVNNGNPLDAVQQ

CC(=O)N[C@H]1[C@H](O[C@@H]2[C@H](O[C@]3(C(=O)O)C[C@H](O)[C@@H](NC(C)=O)[C@H]([C@H](O)[C@@H](CO)O[C@]4(C(=O)O)C[C@H](O)[C@@H](NC(C)=O)[C@H]([C@H](O)[C@H](O)CO)O4)O3)[C@@H](O)[C@H](O[C@H]3[C@H](O)[C@@H](O)[C@H](N(CCOCCOCCNC(=O)[C@H](Cc4ccccc4)NC(=O)[C@H](Cc4ccccc4)NC(=O)CCCC(=O)NCCc4ccc(S(N)(=O)=O)cc4)C(C)=O)O[C@@H]3CO)O[C@@H]2CO)O[C@H](CO)[C@H](O)[C@@H]1O [GA10, GalNAcβ1-4(Neu5Acα2-8 Neu5Acα2-3)Galβ1-4Glc-CL]
average DI [1]: 1.024
average DI [2]: 0.9576
average DI (human siglec-2 (CD22); 25uM CD22): 0.9974
DIi(25uM CD22) (human siglec-2 (CD22); 25uM CD22, replicate column 1 of 4): 0.9925
DIi(25uM CD22) (human siglec-2 (CD22); 25uM CD22, replicate column 2 of 4): 1.005
DIi(25uM CD22) (human siglec-2 (CD22); 25uM CD22, replicate column 3 of 4): 0.9899
DIi(25uM CD22) (human siglec-2 (CD22); 25uM CD22, replicate column 4 of 4): 1.002
average DI (human siglec-2 (CD22); 25uM CD22 at 0C): 0.9401
DIi(25uM CD22 at 0C) (human siglec-2 (CD22); 25uM CD22 at 0C, replicate column 1 of 4): 0.9406
DIi(25uM CD22 at 0C) (human siglec-2 (CD22); 25uM CD22 at 0C, replicate column 2 of 4): 0.9609
DIi(25uM CD22 at 0C) (human siglec-2 (CD22); 25uM CD22 at 0C, replicate column 3 of 4): 0.9196
DIi(25uM CD22 at 0C) (human siglec-2 (CD22); 25uM CD22 at 0C, replicate column 4 of 4): 0.9395
DIi(2uM CTB5) [3]: 1.017 and 1.023 and 1.026 and 1.032
DIi(10uM CTB5) [3]: 1.049 and 1.055 and 1.045 and 1.05
DIi(10uM CTB5 at 0C) [3]: 1.029 and 1.025 and 1.026 and 1.021
average DI [3]: 1.025 and 1.0497
average DI ([4]; mean of 4): 0.9828
DIi(50uM S4) ([4]; measurement 1 of 4): 0.9829
DIi(50uM S4) ([4]; measurement 2 of 4): 0.9821
DIi(50uM S4) ([4]; measurement 3 of 4): 0.9835
DIi(50uM S4) ([4]; measurement 4 of 4): 0.9826
Kd [5]: 14.1 ± 1.9 µM

Reference: article PMC6646405, “A quantitative, high-throughput method identifies protein–glycan interactions via mass spectrometry” (Communications Biology, 2019)
